Patent publication US12059422B2 (MEI Pharma, Inc., priority 2011, dated 2024)

Tests used:
[1] = molecular target: T1, PI3K gamma (Homo sapiens, UniProt P48736); experiment: Luciferase-based luminescence assay (ADP Glo), PI3K gamma enzymatic activity; format: biochemical; details: inhibition of enzymatic activity, 25 μM ATP, read-out: IC50 p110γ
T1 construct: purchased Invitrogen Corp., Carlsbad, CA, USA
Protocol: PI3K catalyzes the conversion of phosphatidylinositol-4,5-bisphosphate (PIP2) and ATP to phosphatidylinositol-3,4,5-trisphosphate (PIP3) and ADP. For all assays, the reaction buffer comprised 50 mM HEPES, pH 7.5, 3 mM MgCl2, 1 mM EGTA, 100 mM NaCl, 0.03% CHAPS and 2 mM DTT. Compounds for testing were dissolved and serially diluted in 100% DMSO (total of 10 concentrations), then diluted 1:25 in reaction buffer.
PI3K beta and gamma enzymatic activity was determined by measuring the amount of ADP produced following the kinase reaction using a luciferase-based luminescence assay (ADP Glo®, Promega Corp., Madison, WI, USA). PI3K enzyme solutions were prepared by diluting PI3K beta (Millipore, Billerica, MA, USA) or PI3K gamma (Invitrogen Corp., Carlsbad, CA, USA) in reaction buffer, to 4× the final assay concentration (final concentrations of enzymes were 4.8 nM and 7.6 nM for PI3K beta and PI3K gamma respectively). A substrate solution was prepared by mixing PIP2 and ATP in reaction buffer at 2× the final assay concentration (final concentrations were 50 μM and 25 μM for PIP2 and ATP respectively). 2.5 μL each of the compound and kinase mixtures were added to individual wells of white low volume 384-well assay plates and mixed by shaking. The reactions were started by adding 5 μL of substrate mixture per well and shaking. The assay plates were covered and reactions were allowed to proceed for 1 hour. Then, 5 μL of reaction mix was transferred to another white low volume 384-well plate, and 5 μL of ADP-Glo™ reagent was added. The plates were briefly centrifuged and incubated for 40 minutes, after which 10 μL of kinase detection buffer was added. The plates then were centrifuged briefly, shaken slowly and equilibrated at room temperature for 30 minutes, after which luminescence was measured using a FlexStation plate reader (Molecular Devices, Sunnyvale, CA, USA). IC50 values were determined by curve fitting using Graphpad Prism software (Graphpad Software, La Jolla, CA, USA).

[2] = molecular target: T2, PI3Kγ (Mus musculus, UniProt Q9JHG7); experiment: ELISA assay for PI3Kγ: in-cell ELISA, phosphorylation of AKT (Ser473) in RAW 264.7 cells; format: cell-based; details: cellular, pAKT (Ser473), C5a stimulation, read-out: IC50 p110γ
T2 construct: endogenous in cells; host or cells: RAW 264.7 (ATCC #TIB-71)
Protocol: PI3K gamma (PI3Kγ) activity was determined by measuring the phosphorylation of AKT (Ser473) using an in-cell ELISA assay. RAW 264.7 (mouse macrophage) cells were obtained from ATCC (ATCC #TIB-71). Growth medium was DMEM (CellGro #CV-10-013-CV) supplemented with 10% fetal bovine serum, 100 IU/mL penicillin, 100 μg/mL streptomycin, and 1×MEM non-essential amino acids. Phosphate buffered saline (PBS) contained 2.7 M NaCl, 54 mM KCl, 86 mM […] (dibasic, anhydrous), and 28 mM […] (monobasic, anhydrous) at pH 7.2. Stimulation mixture (10×) was 500 ng/mL recombinant human complement component C5a (R&D systems #2037-C5-025) diluted in serum-free DMEM medium (CellGro #CV-10-013-CV). Compounds for testing were dissolved and serially diluted in 100% DMSO (total of 10 concentrations), then diluted in serum-free DMEM to 2× final assay concentration. Fixative solution (2×) was 8% formaldehyde (Amresco #M134) diluted in PBS. Permeabilization solution was PBS supplemented with 0.10% Triton X-100. Blocking buffer was obtained from LiCor (LiCor #927-40000). Wash buffer was PBS supplemented with 0.1% Tween-20. Primary antibody solution was rabbit anti-pAKT^S473 monoclonal antibody (Cell Signaling #4060) and mouse anti-total S6 (Santa Cruz #74459) diluted 1:500 and 1:2000, respectively, in the blocking buffer. Secondary antibody solution was IRDye 800CW-conjugated goat anti-rabbit IgG (LiCor #926-32211) and IRDye 680LT-conjugated goat anti-mouse IgG (LiCor #926-68020) diluted 1:1000 and 1:2000, respectively, in the blocking buffer.
RAW 264.7 cells were subcultured in growth medium and seeded into flat, clear bottom, 96-well plates (Corning #3904) at 70000 cells/well, then incubated overnight in a 37° C., 5% CO2 incubator. Growth medium in plates was replaced with 100 μL/well serum-free DMEM and incubated overnight in a 37° C., 5% CO2 incubator. Fresh serum-free DMEM (50 μL/well) was added to plates. Compound treatment was performed by adding 50 μL/well of 2× compound mixture to plates and incubating for 2 hrs at 37° C., 5% CO2, after which 11 μL/well of 10× stimulation mixture was added and plates were incubated for 3 min at 37° C., 5% CO2. Fixation was performed by adding 110 μL/well of 2× fixative solution to plates and incubating for 20 min at room temperature. Permeabilization was performed by replacing fixation solution with 150 μL/well permeabilization solution and incubating for 10 min at room temperature. Permeabilization was repeated (for a total of 2 times). Permeabilization solution was replaced with 100 μL/well blocking buffer and plates were incubated for 1 hr at room temperature, after which 100 μL/well of primary antibody solution was added and plates were incubated overnight at 4° C. Plates were washed with wash buffer, after which 100 μL/well of secondary antibody solution was added to the plates and incubated in the dark for 1 hr at room temperature. Plates were washed with wash buffer, followed by awash with PBS. After completely removing PBS, plates were scanned on the Licor Odyssey Imager. Images were quantified using Licor Odyssey application software. IC50 values were determined by curve fitting using a Collaborative Drug Discovery database (www.collaborativedrug.com).

T1 sequence (P48736 whole entry, species assumed): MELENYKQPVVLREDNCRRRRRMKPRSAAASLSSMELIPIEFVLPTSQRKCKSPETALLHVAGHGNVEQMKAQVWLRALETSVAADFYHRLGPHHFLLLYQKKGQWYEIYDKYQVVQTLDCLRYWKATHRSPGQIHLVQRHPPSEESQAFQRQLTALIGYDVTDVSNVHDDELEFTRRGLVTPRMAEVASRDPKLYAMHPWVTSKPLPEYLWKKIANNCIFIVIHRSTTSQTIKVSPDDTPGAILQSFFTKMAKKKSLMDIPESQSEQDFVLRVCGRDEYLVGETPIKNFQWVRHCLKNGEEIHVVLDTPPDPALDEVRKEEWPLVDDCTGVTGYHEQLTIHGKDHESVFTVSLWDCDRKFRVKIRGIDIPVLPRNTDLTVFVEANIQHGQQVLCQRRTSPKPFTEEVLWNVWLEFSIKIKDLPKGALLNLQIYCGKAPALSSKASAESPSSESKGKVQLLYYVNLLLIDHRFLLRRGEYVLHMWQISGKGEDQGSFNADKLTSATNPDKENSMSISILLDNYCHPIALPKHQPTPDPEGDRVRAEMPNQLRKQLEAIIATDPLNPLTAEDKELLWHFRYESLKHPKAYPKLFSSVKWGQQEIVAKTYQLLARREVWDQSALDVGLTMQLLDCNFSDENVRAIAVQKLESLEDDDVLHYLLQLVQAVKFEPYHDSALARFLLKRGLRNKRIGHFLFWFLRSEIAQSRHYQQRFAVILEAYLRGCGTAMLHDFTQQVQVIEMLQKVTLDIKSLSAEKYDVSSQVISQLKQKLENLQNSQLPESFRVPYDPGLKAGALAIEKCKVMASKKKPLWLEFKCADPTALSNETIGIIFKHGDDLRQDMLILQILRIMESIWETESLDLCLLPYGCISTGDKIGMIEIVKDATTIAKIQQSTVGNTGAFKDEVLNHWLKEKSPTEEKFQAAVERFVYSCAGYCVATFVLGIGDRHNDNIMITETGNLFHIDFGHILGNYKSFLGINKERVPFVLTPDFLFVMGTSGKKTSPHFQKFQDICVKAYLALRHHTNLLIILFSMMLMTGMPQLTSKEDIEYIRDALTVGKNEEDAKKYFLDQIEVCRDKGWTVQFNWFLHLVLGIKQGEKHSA
T2 sequence (Q9JHG7 whole entry): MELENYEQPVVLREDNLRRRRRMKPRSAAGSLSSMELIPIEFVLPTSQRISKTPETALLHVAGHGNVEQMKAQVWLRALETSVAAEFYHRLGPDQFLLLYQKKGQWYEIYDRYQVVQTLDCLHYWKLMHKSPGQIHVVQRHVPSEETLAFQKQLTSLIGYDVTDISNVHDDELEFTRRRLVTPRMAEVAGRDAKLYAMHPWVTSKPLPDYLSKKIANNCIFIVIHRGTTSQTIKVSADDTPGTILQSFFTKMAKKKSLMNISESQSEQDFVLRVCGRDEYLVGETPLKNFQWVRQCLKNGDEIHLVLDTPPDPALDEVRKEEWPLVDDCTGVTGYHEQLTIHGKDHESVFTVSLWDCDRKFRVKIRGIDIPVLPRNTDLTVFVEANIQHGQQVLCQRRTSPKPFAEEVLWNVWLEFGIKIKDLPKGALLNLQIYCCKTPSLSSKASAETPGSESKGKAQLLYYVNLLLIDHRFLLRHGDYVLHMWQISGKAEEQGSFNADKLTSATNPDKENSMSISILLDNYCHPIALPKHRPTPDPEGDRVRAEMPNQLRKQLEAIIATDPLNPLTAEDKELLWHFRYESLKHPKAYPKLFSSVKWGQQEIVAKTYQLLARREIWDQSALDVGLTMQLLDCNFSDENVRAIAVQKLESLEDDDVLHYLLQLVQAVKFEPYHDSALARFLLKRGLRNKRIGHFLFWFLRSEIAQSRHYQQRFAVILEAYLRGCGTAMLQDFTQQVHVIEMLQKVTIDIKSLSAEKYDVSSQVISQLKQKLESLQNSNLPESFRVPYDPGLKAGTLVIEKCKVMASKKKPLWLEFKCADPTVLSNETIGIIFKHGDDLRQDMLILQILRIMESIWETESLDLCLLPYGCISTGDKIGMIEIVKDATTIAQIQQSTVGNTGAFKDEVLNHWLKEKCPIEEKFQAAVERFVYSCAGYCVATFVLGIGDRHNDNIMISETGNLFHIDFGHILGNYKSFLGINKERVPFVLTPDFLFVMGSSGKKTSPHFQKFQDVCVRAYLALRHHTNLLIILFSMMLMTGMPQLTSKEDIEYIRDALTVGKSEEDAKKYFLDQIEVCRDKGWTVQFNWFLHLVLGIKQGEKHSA

CC(C)(Cc1ccccc1)Nc1nc(N2CCOCC2)nc(-n2c(C(F)F)nc3ccccc32)n1 [Compound A14, 4-(2-(difluoromethyl)-1H-benzo[d]imidazol-1-yl)-N-(2-methyl-1-phenylpropan-2-yl)-6-morpholino-1,3,5-triazin-2-amine]
IC50 [1]: 200 to 500 nM | IC50 [2]: 200 to 500 nM

CC(C)(Cc1ccccc1F)Nc1nc(N2CCOCC2)nc(-n2c(C(F)F)nc3ccccc32)n1 [Compound A15, 4-(2-(difluoromethyl)-1H-benzo[d]imidazol-1-yl)-N-(1-(2-fluorophenyl)-2-methylpropan-2-yl)-6-morpholino-1,3,5-triazin-2-amine]
IC50 [1]: > 500 nM | IC50 [2]: 200 to 500 nM

CC(C)(Cc1ccccc1Cl)Nc1nc(N2CCOCC2)nc(-n2c(C(F)F)nc3ccccc32)n1 [Compound A16, 4-(2-(difluoromethyl)-1H-benzo[d]imidazol-1-yl)-N-(1-(2-chlorophenyl)-2-methylpropan-2-yl)-6-morpholino-1,3,5-triazin-2-amine]
IC50 [1]: 200 to 500 nM | IC50 [2]: > 500 nM

Cc1ccccc1CC(C)(C)Nc1nc(N2CCOCC2)nc(-n2c(C(F)F)nc3ccccc32)n1 [Compound A18, 4-(2-(difluoromethyl)-1H-benzo[d]imidazol-1-yl)-N-(2-methyl-1-(o-tolyl)propan-2-yl)-6-morpholino-1,3,5-triazin-2-amine]
IC50 [1]: 200 to 500 nM | IC50 [2]: 200 to 500 nM

COc1ccccc1CC(C)(C)Nc1nc(N2CCOCC2)nc(-n2c(C(F)F)nc3ccccc32)n1 [Compound A19, 4-(2-(difluoromethyl)-1H-benzo[d]imidazol-1-yl)-N-(1-(2-methoxyphenyl)-2-methylpropan-2-yl)-6-morpholino-1,3,5-triazin-2-amine]
IC50 [1]: 200 to 500 nM

COc1cccc(CC(C)(C)Nc2nc(N3CCOCC3)nc(-n3c(C(F)F)nc4ccccc43)n2)c1 [Compound A21, 4-(2-(difluoromethyl)-1H-benzo[d]imidazol-1-yl)-N-(1-(3-methoxyphenyl)-2-methylpropan-2-yl)-6-morpholino-1,3,5-triazin-2-amine]
IC50 [1]: > 500 nM | IC50 [2]: 200 to 500 nM

CC(C)(Cc1ccc(F)cc1)Nc1nc(N2CCOCC2)nc(-n2c(C(F)F)nc3ccccc32)n1 [Compound A22, 4-(2-(difluoromethyl)-1H-benzo[d]imidazol-1-yl)-N-(1-(4-fluorophenyl)-2-methylpropan-2-yl)-6-morpholino-1,3,5-triazin-2-amine]
IC50 [1]: 200 to 500 nM | IC50 [2]: 200 to 500 nM

CC(C)(Cc1cccc2ccccc12)Nc1nc(N2CCOCC2)nc(-n2c(C(F)F)nc3ccccc32)n1 [Compound A27, 4-(2-(difluoromethyl)-1H-benzo[d]imidazol-1-yl)-N-(2-methyl-1-(naphthalen-1-yl)propan-2-yl)-6-morpholino-1,3,5-triazin-2-amine]
IC50 [1]: ≤ 100 nM

CC(C)(Cc1ccccc1-c1ccncc1)Nc1nc(N2CCOCC2)nc(-n2c(C(F)F)nc3ccccc32)n1 [Compound A33, 4-(2-(difluoromethyl)-1H-benzo[d]imidazol-1-yl)-N-(2-methyl-1-(2-(pyridin-4-yl)phenyl)propan-2-yl)-6-morpholino-1,3,5-triazin-2-amine]
IC50 [1]: 200 to 500 nM

CN1CCC(c2ccccc2CC(C)(C)Nc2nc(N3CCOCC3)nc(-n3c(C(F)F)nc4ccccc43)n2)CC1 [Compound A35, 4-(2-(difluoromethyl)-1H-benzo[d]imidazol-1-yl)-N-(2-methyl-1-(2-(1-methylpiperidin-4-yl)phenyl)propan-2-yl)-6-morpholino-1,3,5-triazin-2-amine]
IC50 [1]: > 500 nM | IC50 [2]: 200 to 500 nM

CC(C)(Cc1cccc(F)c1)Nc1nc(N2CCOCC2)nc(-n2c(C(F)F)nc3ccccc32)n1 [Compound A39, 4-(2-(difluoromethyl)-1H-benzo[d]imidazol-1-yl)-N-(1-(3-fluorophenyl)-2-methylpropan-2-yl)-6-morpholino-1,3,5-triazin-2-amine]
IC50 [1]: 200 to 500 nM | IC50 [2]: 100 to 200 nM

CC(C)(Cc1ccccc1-c1cccnc1)Nc1nc(N2CCOCC2)nc(-n2c(C(F)F)nc3ccccc32)n1 [Compound A40, 4-(2-(difluoromethyl)-1H-benzo[d]imidazol-1-yl)-N-(2-methyl-1-(2-(pyridin-3-yl)phenyl)propan-2-yl)-6-morpholino-1,3,5-triazin-2-amine]
IC50 [1]: 200 to 500 nM | IC50 [2]: 200 to 500 nM

COc1cc(-c2ccccc2CC(C)(C)Nc2nc(N3CCOCC3)nc(-n3c(C(F)F)nc4ccccc43)n2)ccn1 [Compound A41, 4-(2-(difluoromethyl)-1H-benzo[d]imidazol-1-yl)-N-(1-(2-(2-methoxypyridin-4-yl)phenyl)-2-methylpropan-2-yl)-6-morpholino-1,3,5-triazin-2-amine]
IC50 [1]: > 500 nM | IC50 [2]: > 500 nM

Cc1cc(-c2ccccc2CC(C)(C)Nc2nc(N3CCOCC3)nc(-n3c(C(F)F)nc4ccccc43)n2)ccn1 [Compound A43, 4-(2-(difluoromethyl)-1H-benzo[d]imidazol-1-yl)-N-(2-methyl-1-(2-(2-methylpyridin-4-yl)phenyl)propan-2-yl)-6-morpholino-1,3,5-triazin-2-amine]
IC50 [1]: > 500 nM | IC50 [2]: 200 to 500 nM

CC(C)(Cc1ccccc1-c1cn[nH]c1)Nc1nc(N2CCOCC2)nc(-n2c(C(F)F)nc3ccccc32)n1 [Compound A44, 4-(2-(difluoromethyl)-1H-benzo[d]imidazol-1-yl)-N-(1-(2-(1H-pyrazol-4-yl)phenyl)-2-methylpropan-2-yl)-6-morpholino-1,3,5-triazin-2-amine]
IC50 [1]: 100 to 200 nM | IC50 [2]: ≤ 100 nM

Cn1cc(-c2ccccc2CC(C)(C)Nc2nc(N3CCOCC3)nc(-n3c(C(F)F)nc4ccccc43)n2)cn1 [Compound A45, 4-(2-(difluoromethyl)-1H-benzo[d]imidazol-1-yl)-N-(2-methyl-1-(2-(1-methyl-1H-pyrazol-4-yl)phenyl)propan-2-yl)-6-morpholino-1,3,5-triazin-2-amine]
IC50 [1]: 200 to 500 nM | IC50 [2]: ≤ 100 nM

CN1CCC(c2ccccc2CC(C)(C)Nc2nc(N3CCOCC3)nc(-n3c(C(F)F)nc4ccccc43)n2)C1 (stereo not drawn) [Compound A75, 4-(2-(difluoromethyl)-1H-benzo[d]imidazol-1-yl)-N-(2-methyl-1-(2-(1-methylpyrrolidin-3-yl)phenyl)propan-2-yl)-6-morpholino-1,3,5-triazin-2-amine]
IC50 [2]: 100 to 200 nM
